Reference: PubChem BioAssay AID624167 (Sanford-Burnham Center for Chemical Genomics, 2012)

What was measured:
Experiment in all cases: inhibition of PEG-3 promoter-driven reporter – cell-based, HeLa, luciferase, CREF/GAPDH counter-screen panel, dose response (AID 624167)
PEG-3 [1] = details: HeLa PEG-Prom luciferase reporter, overnight, CREF/GAPDH counter-screens
Rat fibroblasts (CREF) = details: CREF/GAPDH counter-screens
PEG-3 [2] = molecular target: PEG-3 (UniProt Q6IN02); details: HeLa PEG-Prom luciferase reporter, overnight, CREF/GAPDH counter-screens, mean of runs
[3] = run 1, dose range 1, individual replicate IC50 per panel
[4] = run 2, dose range 1, individual replicate IC50 per panel

PEG-3 (UniProt Q6IN02), sequence (Q6IN02 whole entry, looked up): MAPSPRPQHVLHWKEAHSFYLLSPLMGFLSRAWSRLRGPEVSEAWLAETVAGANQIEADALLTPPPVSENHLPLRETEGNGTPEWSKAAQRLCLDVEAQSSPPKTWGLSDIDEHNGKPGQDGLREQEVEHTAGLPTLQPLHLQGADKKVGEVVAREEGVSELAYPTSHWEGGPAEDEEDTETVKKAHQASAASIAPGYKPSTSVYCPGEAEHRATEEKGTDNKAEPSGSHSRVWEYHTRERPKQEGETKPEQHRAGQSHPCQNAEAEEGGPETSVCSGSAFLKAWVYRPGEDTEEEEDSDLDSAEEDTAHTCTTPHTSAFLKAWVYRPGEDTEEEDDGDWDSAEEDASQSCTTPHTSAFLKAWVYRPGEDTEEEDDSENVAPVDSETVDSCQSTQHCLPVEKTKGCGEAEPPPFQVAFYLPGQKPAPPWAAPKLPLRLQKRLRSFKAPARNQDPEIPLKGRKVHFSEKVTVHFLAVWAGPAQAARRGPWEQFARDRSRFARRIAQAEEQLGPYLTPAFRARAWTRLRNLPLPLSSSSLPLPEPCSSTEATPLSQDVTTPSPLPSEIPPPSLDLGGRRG

| SMILES | IC50 (PEG-3 [2]) | IC50 (PEG-3 [1]; [3]) | IC50 (PEG-3 [1]; [4]) | IC50 (Rat fibroblasts (CREF); mean of runs) | IC50 (Rat fibroblasts (CREF); [3]) | IC50 (Rat fibroblasts (CREF); [4]) |
| --- | --- | --- | --- | --- | --- | --- |
| O=C(Nc1ccc(N2CCOCC2)cc1)c1cnsn1 | 2130 nM | 2800 nM | 1470 nM | 2590 nM | 2510 nM | 2680 nM |
| c1ccc(-c2noc(-c3ccc4c(c3)OCO4)n2)nc1 | 818 nM | 622 nM | 1010 nM | 694 nM | 309 nM | 1080 nM |
| Cc1ccccc1OCC(O)CNC1CCC(NCC(O)COc2ccccc2C)CC1 (configuration not stated) | 7150 nM | 9800 nM | 4490 nM | 10800 nM | 8940 nM | 12600 nM |
| Cc1ccc(-c2nnc(SCC(=O)Nc3ccccc3F)o2)cc1 | 1540 nM | 1450 nM | 1640 nM | 3270 nM | 3450 nM | 3080 nM |
| CCN(CCCl)c1cc(CN(C)C)cc(NC(=O)c2ccc(C(=O)Nc3cc(CN(C)C)cc(N(CC)CCCl)c3)cc2)c1 | 1120 nM | 1600 nM | 642 nM | 7530 nM | 14300 nM | 800 nM |
| Cc1csc(NC(=O)c2ccc(N3CCCC3=O)cc2)n1 | 5930 nM | 5340 nM | 6530 nM | 4510 nM | 2850 nM | 6170 nM |

Further lines, with some results ahead:

| IC50 (PEG-3 [2]) | SMILES | IC50 (PEG-3 [1]; [3]) | IC50 (PEG-3 [1]; [4]) | IC50 (Rat fibroblasts (CREF); mean of runs) | IC50 (Rat fibroblasts (CREF); [3]) | IC50 (Rat fibroblasts (CREF); [4]) |
| --- | --- | --- | --- | --- | --- | --- |
| 4930 nM | O=C(NCCc1ccccc1)c1ccc2c(c1)OCO2 | 3970 nM | 5890 nM | 6290 nM | 6890 nM | 5680 nM |
| 4540 nM | O=C(Nc1ccccn1)c1cc2ccccc2o1 | 5060 nM | 4010 nM | 1820 nM | 1350 nM | 2290 nM |
| 571 nM | Cc1ccc(-c2nc(-c3ccccn3)no2)cc1 | 479 nM | 663 nM | 480 nM | 288 nM | 672 nM |
| 2960 nM | CN(C)c1ccc(/C=C2\SC(=O)N(CCc3nnc(N)s3)C2=O)cc1 | 3340 nM | 2580 nM | 3180 nM | 1610 nM | 4750 nM |
| 1640 nM | Cc1ccc(-c2nc(-c3ccccn3)no2)cc1Cl | 1190 nM | 2090 nM | 1310 nM | 1220 nM | 1400 nM |
| 4030 nM | CCCn1c(C)cc(C(=O)CN2C(=O)c3ccccc3S2(=O)=O)c1C | 3240 nM | 4830 nM | 6190 nM | 6320 nM | 6060 nM |
